IC50 data for 73 molecules are collected here from patent publication US10035801B2, “Pyrazolo compounds and uses thereof” (CONSTELLATION PHARMACEUTICALS, INC., priority 2013, dated 2018).

T1 sequence (P29375 whole entry): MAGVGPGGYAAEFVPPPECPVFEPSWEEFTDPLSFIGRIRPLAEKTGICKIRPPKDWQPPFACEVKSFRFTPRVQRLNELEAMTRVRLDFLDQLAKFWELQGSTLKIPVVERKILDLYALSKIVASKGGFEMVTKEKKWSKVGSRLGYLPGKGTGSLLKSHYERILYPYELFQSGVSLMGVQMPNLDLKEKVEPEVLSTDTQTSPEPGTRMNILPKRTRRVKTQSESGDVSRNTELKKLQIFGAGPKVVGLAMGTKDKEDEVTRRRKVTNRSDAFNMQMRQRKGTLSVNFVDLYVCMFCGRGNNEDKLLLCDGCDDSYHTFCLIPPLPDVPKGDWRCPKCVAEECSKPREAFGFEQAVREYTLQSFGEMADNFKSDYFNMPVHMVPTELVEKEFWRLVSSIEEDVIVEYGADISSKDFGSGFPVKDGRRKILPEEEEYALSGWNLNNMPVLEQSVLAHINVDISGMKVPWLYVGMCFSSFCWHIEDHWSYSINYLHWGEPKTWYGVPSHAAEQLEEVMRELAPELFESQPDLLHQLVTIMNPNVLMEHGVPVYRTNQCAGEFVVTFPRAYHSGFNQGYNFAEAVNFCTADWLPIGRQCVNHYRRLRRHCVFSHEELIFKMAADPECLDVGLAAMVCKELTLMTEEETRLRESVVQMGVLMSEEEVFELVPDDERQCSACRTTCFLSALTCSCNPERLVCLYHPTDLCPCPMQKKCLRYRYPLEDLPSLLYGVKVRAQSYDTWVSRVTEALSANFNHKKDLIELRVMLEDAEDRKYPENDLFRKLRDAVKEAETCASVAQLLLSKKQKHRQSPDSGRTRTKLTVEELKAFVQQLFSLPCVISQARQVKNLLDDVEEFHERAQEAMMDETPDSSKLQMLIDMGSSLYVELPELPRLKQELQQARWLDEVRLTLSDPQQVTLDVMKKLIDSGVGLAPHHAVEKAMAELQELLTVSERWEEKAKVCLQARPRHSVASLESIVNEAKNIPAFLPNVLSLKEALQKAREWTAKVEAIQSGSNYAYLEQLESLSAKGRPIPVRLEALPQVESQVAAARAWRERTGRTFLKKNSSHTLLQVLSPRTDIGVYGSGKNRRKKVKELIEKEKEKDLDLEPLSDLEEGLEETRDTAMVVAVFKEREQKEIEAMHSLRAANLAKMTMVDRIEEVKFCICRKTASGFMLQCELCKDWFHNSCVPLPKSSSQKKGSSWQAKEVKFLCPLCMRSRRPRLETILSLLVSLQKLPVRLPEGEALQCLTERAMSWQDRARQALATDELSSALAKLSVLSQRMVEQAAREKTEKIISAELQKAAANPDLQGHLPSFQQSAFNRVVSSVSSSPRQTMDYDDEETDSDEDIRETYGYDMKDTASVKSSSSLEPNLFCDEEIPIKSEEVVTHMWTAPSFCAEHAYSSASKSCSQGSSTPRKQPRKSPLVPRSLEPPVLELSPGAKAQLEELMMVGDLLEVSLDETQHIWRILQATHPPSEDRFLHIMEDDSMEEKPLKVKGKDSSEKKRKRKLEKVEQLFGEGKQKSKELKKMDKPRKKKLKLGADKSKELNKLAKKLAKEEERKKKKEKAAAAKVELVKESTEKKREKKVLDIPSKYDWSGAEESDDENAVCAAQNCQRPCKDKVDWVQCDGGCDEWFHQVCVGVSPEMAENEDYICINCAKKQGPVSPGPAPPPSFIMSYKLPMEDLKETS

One experiment concerns the target T1, KDM5A (Homo sapiens, UniProt P29375).
T1 construct: Full length KDM5A enzyme was expressed and purified inhouse; made in house
The experiment is described as follows: KDM5 enzyme assay, KDM5A HTRF (Example 463). It counts as biochemical.
Details: not given
Consider `N#Cc1cnn2c(=O)c(Br)c(-c3ccccc3)[nH]c12` [Example 45, 6-Bromo-7-oxo-5-phenyl-4,7-dihydropyrazolo[1,5-a]pyrimidine-3-carbonitrile], for which the IC50 is 0.03 µM.
Regarding `CC(C)c1c[nH]c2c(C#N)cnn2c1=O` [Example 197], the IC50 was 0.029 µM.

Still in this experiment, the particulars now being: compounds of Examples 1-432; read-out: Example 463 Assay KDM5A HTRF IC50.
In the case of `CC(C)c1c(-c2cc(C(F)(F)F)nn2C)[nH]c2c(C#N)cnn2c1=O` [Compound 410], the IC50 was found to be 0.039 µM.
As for `CCc1c(-c2cccc(N3CCC(c4ccccc4)C3=O)c2)[nH]c2c(C#N)cnn2c1=O` (stereo not shown) [Compound 423], the IC50 turned out to be 0.02 µM.
In the case of `CC(=O)N1CC=C(c2[nH]c3c(C#N)cnn3c(=O)c2C(C)C)CC1` [Example 237], the IC50 was 0.078 µM.
As to `CC(C)n1cc(-c2[nH]c3c(C#N)cnn3c(=O)c2C2(C)CCC2)cn1` [Compound 432], the IC50 is 0.056 µM.
On the same count and under the same terms, the figure for `CC(C)c1c(-c2ccc(S(C)(=O)=O)cc2F)[nH]c2c(C#N)cnn2c1=O` [Example 244] is 0.021 µM; for `COCC(C)n1cc(-c2[nH]c3c(C#N)cnn3c(=O)c2C(C)C)cn1` (stereo not shown) [Example 286] it is 0.03 µM; for `CC(C)c1c(-c2cncc(F)c2)[nH]c2c(C#N)cnn2c1=O` [Example 74] it is 0.004 µM.
As for `CC(C)c1c(-c2cc(CO)co2)[nH]c2c(C#N)cnn2c1=O` [Example 78], the IC50 is 0.0077 µM.
Take `CC(C)c1c(-c2ccoc2)[nH]c2c(C#N)cnn2c1=O` [Example 3, 5-(furan-3-yl)-6-isopropyl-7-oxo-4,7-dihydropyrazolo[1,5-a]pyrimidine-3-carbonitrile]: the IC50 worked out at 0.0038 µM.
Same read-out and setting: the figure for `CCc1c(C(N)=O)[nH]c2c(C#N)cnn2c1=O` [Example 201] is 0.029 µM; for `CC(C)c1c(-c2cccc(-n3cccn3)c2)[nH]c2c(C#N)cnn2c1=O` [Example 270] it is 0.013 µM; for `CCc1c(-c2cccc(-c3cnn(C)c3)c2)[nH]c2c(C#N)cnn2c1=O` [Example 227] it is 0.013 µM.
Take `CC(C)c1c(-c2cccc(CCc3ccccc3)c2)[nH]c2c(C#N)cnn2c1=O` [Compound 388]: the IC50 worked out at 0.025 µM.
Take `CC(C)c1c(-c2ccc(OCc3ccccc3)nc2)[nH]c2c(C#N)cnn2c1=O` [Example 334]: the IC50 is 0.025 µM.
Regarding `CC(C)c1c(-c2ccc(CO)o2)[nH]c2c(C#N)cnn2c1=O` [Example 87], the IC50 turned out to be 0.0075 µM.
Regarding `CC(C)c1c(-c2cn(C(C)C)nc2F)[nH]c2c(C#N)cnn2c1=O` [Example 8, 5-(3-Fluoro-1-isopropyl-1H-pyrazol-4-yl)-6-isopropyl-7-oxo-4,7-dihydropyrazolo[1,5-a]pyrimidine-3-carbonitrile], the IC50 was determined as 0.022 µM.
As for `CC(C)c1c(-c2cccs2)n(C)c2c(C#N)cnn2c1=O` [Example 168], the IC50 was 0.046 µM.
Regarding `CC(=O)NCCCCc1c(-c2ccccc2)[nH]c2c(C#N)cnn2c1=O` [Example 250], the IC50 worked out at 5.7 µM.
As to `CC(C)c1c(-c2cnn(C(c3ccccc3)c3ccccc3)c2)[nH]c2c(C#N)cnn2c1=O` [Example 125], the IC50 worked out at 0.03 µM.
For `CC(C)c1c(-c2cnn(Cc3ccncc3)c2)[nH]c2c(C#N)cnn2c1=O` [Example 100], the IC50 was found to be 0.008 µM.
For the molecule `CC(C)NC(=O)c1ccc(-c2[nH]c3c(C#N)cnn3c(=O)c2C(C)C)cc1` [Compound 345], the IC50 stood at 0.14 µM.
`CCc1c(-c2ccc(Nc3ccc(F)cc3)cc2)[nH]c2c(C#N)cnn2c1=O` [Example 232]: the IC50 is 0.019 µM.
Turning to `CC(C)c1c(-c2cccc(C(F)(F)F)c2)[nH]c2c(C#N)cnn2c1=O` [Example 88], the IC50 turned out to be 0.014 µM.
Turning to `CCOCCn1cc(-c2[nH]c3c(C#N)cnn3c(=O)c2C(C)C)cn1` [Example 287], the IC50 was found to be 0.022 µM.
On the same count and under the same terms, then `CCc1c(C(=O)O)[nH]c2c(C#N)cnn2c1=O` [Example 25, 3-cyano-6-ethyl-7-oxo-4,7-dihydropyrazolo[1,5-a]pyrimidine-5-carb oxylic acid], with 0.22 µM; and `CC(C)c1c(-c2ccc(Cl)c(C(=O)N3CCOCC3)c2)[nH]c2c(C#N)cnn2c1=O` [Example 96], with 0.034 µM; and `CC(C)c1c(-c2cc(N)cc(C#N)c2)[nH]c2c(C#N)cnn2c1=O` [Example 279], with 0.024 µM.
Regarding `N#Cc1cnn2c(=O)c(CCCCN)c(-c3ccccc3)[nH]c12` [Example 252], the IC50 came out at 7.63 µM.
On to `CC(C)c1c(-c2ccc(F)cc2)[nH]c2c(C#N)cnn2c1=O` [Example 70], for which the IC50 came to 0.0078 µM.
Regarding `Cn1c(-c2ccccc2)c(-c2ccncc2)c(=O)n2ncc(C#N)c12` [Example 229], the IC50 was 9.6 µM.
Consider `CC(C)c1c(-c2ccccc2F)n(C)c2c(C#N)cnn2c1=O` [Example 174], for which the IC50 turned out to be 0.081 µM.
Consider `CCC(C)n1cc(-c2[nH]c3c(C#N)cnn3c(=O)c2C(C)C)cn1` (stereo not shown) [Example 107], for which the IC50 was 0.019 µM.
In the case of `COc1c(C)cc(-c2[nH]c3c(C#N)cnn3c(=O)c2C(C)C)cc1C` [Example 144], the half-inhibitory concentration (IC50) worked out at 0.019 µM.
The same measure, in the same setting: the figure for `N#Cc1cnn2c(=O)c(CCF)c(-c3ccccc3)[nH]c12` [Example 222] is 0.012 µM; for `CCC(=O)N1CC(n2cc(-c3[nH]c4c(C#N)cnn4c(=O)c3C(C)C)cn2)C1` [Compound 392] it is 0.02 µM; for `CC(C)c1c(-c2cccc(CC(N)=O)c2)[nH]c2c(C#N)cnn2c1=O` [Example 282] it is 0.008 µM.
As to `CC(C)c1c(-c2cccc(OCc3ccccc3)c2)[nH]c2c(C#N)cnn2c1=O` [Compound 356], the IC50 worked out at 0.044 µM.
As to `COC(=O)c1cc(-c2[nH]c3c(C#N)cnn3c(=O)c2C(C)C)c[nH]1` [Compound 406], the IC50 worked out at 0.015 µM.
Same read-out and setting: the figure for `CC(C)c1c(-c2cccc(OCC3CC3)c2)[nH]c2c(C#N)cnn2c1=O` [Compound 355] is 0.04 µM; for `Cc1c(C(C)C)c(=O)n2ncc(C#N)c2n1C` [Example 196] it is 0.047 µM.
Take `Cc1nc(-c2ccccc2)sc1-c1[nH]c2c(C#N)cnn2c(=O)c1C(C)C` [Example 278]: the half-maximal inhibitory concentration (IC50) amounted to 0.076 µM.
As for `CC(C)c1c(CCc2ccccc2)[nH]c2c(C#N)cnn2c1=O` [Example 23, 6-isopropyl-7-oxo-5-phenethyl-4,7-dihydropyrazolo[1,5-a]pyrimidine-3-carbonitrile], the IC50 was 0.0098 µM.
In the case of `CCc1c(C(=O)NCC(=O)c2ccccc2)[nH]c2c(C#N)cnn2c1=O` [Example 31, 3-cyano-6-ethyl-7-oxo-N-(2-oxo-2-phenylethyl)-4,7-dihydropyrazolo[1,5-a]pyrimidine-5-carboxamide], the IC50 was found to be 0.025 µM.
With `CC(C)c1c(-c2ccc(S(=O)(=O)N3CCOCC3)cc2)[nH]c2c(C#N)cnn2c1=O` [Compound 399], the IC50 is 0.054 µM.
On to `CC(C)c1ccc(-c2[nH]c3c(C#N)cnn3c(=O)c2C(C)C)o1` [Compound 379], for which the IC50 came out at 0.011 µM.
`CC(C)c1c(-c2ccc(C(F)(F)F)nc2)[nH]c2c(C#N)cnn2c1=O` [Compound 361]: the IC50 came out at 0.052 µM.
As for `CCOc1ccc(-c2[nH]c3c(C#N)cnn3c(=O)c2C(C)C)cc1Cl` [Example 119], the IC50 is 0.019 µM.
As for `CC(C)c1c(-c2ccc(=O)n(C)c2)[nH]c2c(C#N)cnn2c1=O` [Example 56], the IC50 is 0.016 µM.
For the molecule `CC(C)c1c(-c2cnn(Cc3cscn3)c2)[nH]c2c(C#N)cnn2c1=O` [Example 141], the IC50 was found to be 0.0093 µM.
Still for that read-out and setting: then `CC(C)c1c(-c2cnn(C(CO)c3ccccc3)c2)[nH]c2c(C#N)cnn2c1=O` (stereo not shown) [Example 336], with 0.032 µM; and `CC(C)c1c(-c2ccnn2C)[nH]c2c(C#N)cnn2c1=O` [Example 77], with 0.012 µM.
As to `CC(C)c1c(-c2cnn(Cc3ccccc3Cl)c2)[nH]c2c(C#N)cnn2c1=O` [Example 101], the IC50 is 0.0085 µM.
Same read-out and setting: then `CC(C)c1c(-c2ccco2)n(C)c2c(C#N)cnn2c1=O` [Example 178], with 0.043 µM; and `Cc1ccc(-c2[nH]c3c(C#N)cnn3c(=O)c2C(C)C)cc1C1CC1` [Example 315], with 0.024 µM.
In the case of `CC(C)c1c(-c2cccc(-c3ccccc3)c2)[nH]c2c(C#N)cnn2c1=O` [Compound 353], the IC50 stood at 0.014 µM.
`CC(CO)c1c(-c2ccccc2)[nH]c2c(C#N)cnn2c1=O` (stereo not shown) [Example 249]: the IC50 came out at 0.03 µM.
Same read-out and setting: the figure for `CC(C)c1c(-c2ccn(C(C)C)n2)[nH]c2c(C#N)cnn2c1=O` [Compound 411] is 0.035 µM; for `C=CCc1c(-c2ccccc2)[nH]c2c(C#N)cnn2c1=O` [Example 223] it is 0.009 µM.
In the case of `CC(C)c1c(-c2cnn(CCC(F)(F)F)c2)[nH]c2c(C#N)cnn2c1=O` [Example 159], the IC50 amounted to 0.035 µM.
With `CC(C)c1c(-c2cc3ccccc3[nH]2)[nH]c2c(C#N)cnn2c1=O` [Example 212], the IC50 amounted to 0.008 µM.
As for `CC(C)c1c(-c2cc[nH]c2)[nH]c2c(C#N)cnn2c1=O` [Example 203], the IC50 is 0.011 µM.
As to `CC(C)c1c(-c2cccc(C#N)c2)n(C)c2c(C#N)cnn2c1=O` [Example 166], the IC50 worked out at 0.2 µM.
On to `CC(C)c1c(-c2cnn([C@H]3CC[C@H](O)C3)c2)[nH]c2c(C#N)cnn2c1=O` [Compound 382], for which the IC50 is 0.048 µM.
For the molecule `COc1cccc(-c2c(C(C)C)c(=O)n3ncc(C#N)c3n2C)c1` [Example 165], the IC50 came to 0.061 µM.
As to `CCCn1c(C)c(CC)c(=O)n2ncc(C#N)c12` [Example 192], the IC50 was 1.5 µM.
Regarding `CC(C)c1c(-c2ccc(C(=O)NC3CCCC3)c(Cl)c2)[nH]c2c(C#N)cnn2c1=O` [Example 97], the IC50 was 0.038 µM.
The same measure, in the same setting: then `CC(C)c1c(-c2ccc(Br)o2)[nH]c2c(C#N)cnn2c1=O` [Compound 384], with 0.013 µM; and `CC(C)c1c(-c2ccc(N3CCN(C)CC3)cc2)[nH]c2c(C#N)cnn2c1=O` [Compound 346], with 0.04 µM.
As for `COC(=O)c1cc(-c2[nH]c3c(C#N)cnn3c(=O)c2C(C)C)cn1C(C)C` [Compound 409], the IC50 was 0.044 µM.
In the case of `CC(C)c1c(-c2cnn(Cc3cccc4ccccc34)c2)[nH]c2c(C#N)cnn2c1=O` [Example 134], the IC50 turned out to be 0.0055 µM.
As to `CC(C)c1c(-c2ccc(-c3ccccc3)o2)[nH]c2c(C#N)cnn2c1=O` [Example 59], the IC50 was found to be 0.034 µM.

Usually IC50 stands for the point on the concentration scale where inhibition reaches its midpoint.
